Laboratory results: patent US7217710B2, “Substituted pyrazolopyrimidines” (SmithKline Beecham Corporation, priority 2001, dated 2007)

Experiments:
Type in all cases: biochemical
[1] = molecular target: T1, GST-VEGFR2 (Homo sapiens, UniProt P35968); assay: VEGF-R2 Enzyme Assay (VEGF-E2), LANCE method; conditions: for IC50: read-out: VEGFR2 PIC50 VEGFR-E2 assay
T1 construct: GST-VEGFR2, baculovirus expressed recombinant constructs of the intracellular domains; made in house

[2] = molecular target: T2, GST-TIE2 (intracellular domains of human TIE2) (Homo sapiens, UniProt Q02763); assay: TIE-2 Enzyme Assay (TIE2-E2), LANCE method; conditions: for IC50: read-out: TIE2 PIC50 TIE2-E2 assay
T2 construct: made in house
Text: TIE-2 Enzyme Assay (TIE2-E2
The TIE-2 enzyme assay uses the LANCE method (Wallac) and GST-TIE2, baculovirus-expressed recombinant constructs of the intracellular domains of human TIE2 (amino acids 762–1104, GenBank Accession # L06139) tagged by GST). The method measures the ability of the purified enzymes to catalyse the transfer of the γ-phosphate from ATP onto tyrosine residues in a biotinylated synthetic peptide, D1–15 (biotin-C6-LEARLVAYEGWVAGKKKamide). This peptide phosphorylation is detected using the following procedure: for enzyme preactivation, GST-TIE2 is incubated for 2 hours at room temperature with 80 μM ATP, 10 mM MgCl2, 0.1 mg/ml BSA, 0.01% Tween 20 and 1 mM DTT in 100 mM HEPES buffer (pH7.4). 5 nM preactivated GST-TIE2 is incubated for 2 hours at room temperature in 96 well plates with 1 uM D1–15 peptide, 80 uM ATP, 10 mM MgCl2, 0.1 mg/ml BSA, 0.01% Tween 20 and titrated test compound (diluted from a 10 mM stock in DMSO, final DMSO concentration is 2.4%) in 100 mM HEPES (pH7.4). The reaction is stopped by the addition of EDTA (final concentration 45 mM). Streptavidin linked-APC (allophycocyanin, PerkinElmer) and europium-labeled anti-phosphotyrosine antibody (PerkinElmer) are then added at the final concentration of 8 nM and 1 nM, respectively. The APC signal is measured using an Wallac Multilabel 1420 counter. (Wallac Berthold Japan). The percent inhibition of activity is calculated relative to blank control wells. The concentration of test compound that inhibits 50% of activity (IC50) is interpolated using nonlinear regression (Levernberg-Marquardt) and the equation, y=Vmax (1−x/(K+x))+Y2, where “K” is equal to the IC50. The IC50 values are converted to pIC50 values, i.e., −log IC50 in Molar concentration.

[3] = molecular target: T3, catalytic domain of human VEGFR3 (Homo sapiens, UniProt P35916, H890Q); assay: VEGFR-3 Homogenous Time-Resolved Fluorescence Assay (VEGFR-3-HTRF); conditions: read-out: VEGFR3 PIC50 VEGFR-3-HTRF assay
T3 construct: made in house; host or cells: Sf9 insect cells (baculovirus, pFastBac1)
Text: VEGFR—3-Homogenous Time-Resolved Fluorescence Assay (VEGFR-3-HTRF)
This assay assesses Vascular Endothelial Growth Factor 3 (VEGFR3) tyrosine kinase inhibitory activity in substrate phosphorylation assays. The assay examines the ability of small molecule organic compounds to inhibit the tyrosine phosphorylation of a peptide substrate.
The substrate phosphorylation assays use the VEGFR3 catalytic domain, which is expressed in Sf. 9 insect cells as an amino-terminal GST-tagged fusion protein. The catalytic domain of human VEGFR3 (AA residues #819–1298 based upon GenBank Accession #XM003852) is cloned by PCR from human Placenta Marathon Ready cDNA (Clontech). The PCR product is subcloned into pFastBac1 vector containing an N-terminal GST tag. The resulting pFB/GST/VEGFR3icd vector is used to generate a recombinant baculovirus for protein expression. The VEGFR3 catalytic domain translated sequence is:
Autophosphorylation allows enzymes to be fully activated prior to addition to peptide substrates. The assays are performed using enzyme that has been activated by autophosphorylation via preincubation in buffer with ATP and magnesium. Activated enzyme is then diluted and added to titrated compound and the substrate mix.
200 nM VEGFR3 enzyme is activated for 45 minutes at room temperature by incubating the enzyme in buffer containing 100 mM HEPES (pH7.2), 75 μM ATP, 0.3 mM DTT, 0.1 mg/mL BSA, and 10 mM MgCl2. After activation, VEGFR3 is diluted 100-fold into 2× dilution buffer: 200 mM HEPES (pH 7.5), 0.2 mg/mL BSA, 0.6 mM DTT. 20 μL of the diluted enzyme mix is added to 20 μL of 2× substrate mix (150 μM ATP, 20 mM MgCl2, 0.72 μM biotinylated peptide) in the assay plates. Final assay conditions are: 100 mM HEPES (pH 7.2), 75 μM ATP, 10 mM MgCl2, 0.1 mg/mL BSA, 0.3 mM DTT, 0.36 μM biotinylated peptide, and 1 nM VEGFR3 enzyme. Assay plates are incubated for 1.5 hours at room temperature before the addition of 30 μL 100 mM EDTA to the wells to stop the enzymatic reaction. 40 μL/well of HTRF mix are then added to the assay plates for the detection of phosphorylated substrate. Final assay concentrations are: 100 mM HEPES (pH7.2), 0.1 mg/mL BSA, 15 nM streptavidin-labeled allophycocyanin (PerkinElmer), and 1 nM europium-labeled anti-phosphotyrosine antibody (PerkinElmer). Assay plates are left unsealed and are counted in a Wallac Multilabel Counter 1420 (PerkinElmer).
The data for dose responses are plotted as % Control calculated with the data reduction formula 100*(U1–C2)/(C1–C2) versus concentration of compound where U is the unknown value, C1 is the average control value obtained for DMSO , and C2 is the average control value obtained for 0.1M EDTA. Data are fitted to the curve described by: y=((Vmax*x)/(K+x)) where Vmax is the upper asymptote and K is the IC50.

T2 sequence (Q02763 762-1104): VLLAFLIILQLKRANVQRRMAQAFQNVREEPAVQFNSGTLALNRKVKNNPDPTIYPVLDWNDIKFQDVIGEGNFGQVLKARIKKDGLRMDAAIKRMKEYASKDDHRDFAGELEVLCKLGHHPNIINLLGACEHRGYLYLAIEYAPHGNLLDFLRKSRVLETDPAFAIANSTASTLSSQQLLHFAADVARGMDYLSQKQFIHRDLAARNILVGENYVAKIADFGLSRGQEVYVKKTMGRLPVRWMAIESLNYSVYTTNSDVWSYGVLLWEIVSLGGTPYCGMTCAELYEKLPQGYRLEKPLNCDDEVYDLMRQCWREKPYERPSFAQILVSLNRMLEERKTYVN
T1 sequence (P35968 786-1356 limits assumed): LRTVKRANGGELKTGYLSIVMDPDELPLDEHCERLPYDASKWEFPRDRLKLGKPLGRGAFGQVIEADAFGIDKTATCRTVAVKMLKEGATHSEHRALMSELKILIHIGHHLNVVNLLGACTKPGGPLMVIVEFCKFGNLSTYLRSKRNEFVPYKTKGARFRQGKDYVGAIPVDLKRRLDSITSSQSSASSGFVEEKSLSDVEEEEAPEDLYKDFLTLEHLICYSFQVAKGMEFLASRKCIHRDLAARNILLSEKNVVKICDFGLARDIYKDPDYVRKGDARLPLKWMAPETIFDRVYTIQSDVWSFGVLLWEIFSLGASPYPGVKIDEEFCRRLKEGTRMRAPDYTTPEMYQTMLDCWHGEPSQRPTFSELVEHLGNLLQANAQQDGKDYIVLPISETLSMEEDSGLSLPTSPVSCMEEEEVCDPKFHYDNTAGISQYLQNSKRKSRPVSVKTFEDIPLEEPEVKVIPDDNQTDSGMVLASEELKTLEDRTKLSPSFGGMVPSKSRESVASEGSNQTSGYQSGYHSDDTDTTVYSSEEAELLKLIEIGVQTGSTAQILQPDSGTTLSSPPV
T3 sequence (P35916 with tags, fused parts or gaps isoform P35916-1 H890Q): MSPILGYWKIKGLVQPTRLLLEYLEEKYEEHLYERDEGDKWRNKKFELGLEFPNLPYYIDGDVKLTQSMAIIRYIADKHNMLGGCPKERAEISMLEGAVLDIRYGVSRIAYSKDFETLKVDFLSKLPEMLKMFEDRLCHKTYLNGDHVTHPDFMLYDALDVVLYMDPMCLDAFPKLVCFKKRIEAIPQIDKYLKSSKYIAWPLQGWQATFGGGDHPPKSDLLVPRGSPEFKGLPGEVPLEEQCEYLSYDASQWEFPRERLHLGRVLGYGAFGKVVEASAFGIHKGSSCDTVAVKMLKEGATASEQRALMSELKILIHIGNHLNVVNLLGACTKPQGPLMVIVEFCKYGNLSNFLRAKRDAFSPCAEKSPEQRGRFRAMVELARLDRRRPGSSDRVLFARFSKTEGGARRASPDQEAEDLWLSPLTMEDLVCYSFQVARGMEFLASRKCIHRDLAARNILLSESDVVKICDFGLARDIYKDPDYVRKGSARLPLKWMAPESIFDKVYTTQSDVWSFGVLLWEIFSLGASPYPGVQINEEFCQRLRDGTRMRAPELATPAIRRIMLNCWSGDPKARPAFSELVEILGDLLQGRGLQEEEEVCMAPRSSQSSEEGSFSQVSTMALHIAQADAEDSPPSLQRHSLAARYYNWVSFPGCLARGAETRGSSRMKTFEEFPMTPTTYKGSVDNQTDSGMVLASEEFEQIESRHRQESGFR

| SMILES | IC50 [2] | IC50 [3] | further results |
| --- | --- | --- | --- |
| Cn1nc(-c2ccc(NC(=O)Nc3cc(C(F)(F)F)cc(C(F)(F)F)c3)c(F)c2)c2cnc(NCCN3CCOCC3)nc21 [Example 53, 1-(3,5-Bis-trifluoromethyl-phenyl)-3-{2-fluoro-[methyl-(2-morpholin-4-yl-ethylamino)-1H-pyrazolo[3,4-d]pyrimidin-3-yl]-phenyl}-urea] | – | – | VEGFR2 PIC50 VEGFR-E2 assay [1]: + (+ = PIC50 = 5.00 to less than 6.00); TIE2 PIC50 TIE2-E2 assay [2]: +++ (+++ = PIC50 = 7.00 to less than 7.40) |
| Cn1nc(-c2ccc(NC(=O)Nc3cc(C(F)(F)F)ccc3F)cc2)c2cnc(NCCc3ccncc3)nc21 [Example 140, 1-(2-Fluoro-5-trifluoromethyl-phenyl)-3-{4-[(1-methyl-6-(2-pyridin-4-yl-ethylamino)-1H-pyrazolo[3,4-d]pyrimidin-3-yl]-phenyl]} urea] | 0.0398 to 0.1 µM | 0.1 to 1 µM | – |
| Cn1nc(-c2ccc(NS(=O)(=O)c3cccc(Cl)c3Cl)cc2)c2cnc(NCCCn3ccnc3)nc21 [Example 116, 2,3-Dichloro-N-{4-[1-methyl-6-(3-imidazol-1-yl-propylamino)-1H-pyrazolo[3,4-d]pyrimidin-3-yl]-phenyl}-benzenesulfonamide] | > 10 µM | > 10 µM | – |
| Cn1nc(-c2ccc(NC(=O)Nc3cc(C(F)(F)F)ccc3F)cc2)c2cnc(NCCc3cccnc3)nc21 [Example 141] | 0.1 to 1 µM | > 10 µM | – |
| Cn1nc(-c2ccc(NC(=O)Nc3cccc(C(F)(F)F)c3)cc2)c2cnc(NCCN3CCOCC3)nc21 [Example 42, 1-{4-[1-Methyl-6-(2-morpholin-4-yl-ethylamino)-1H-pyrazolo[3,4-d]pyrimidin-3-yl]-phenyl}-3-(3-trifluoromethyl-phenyl)-urea] | ≤ 0.0398 µM | 1 to 10 µM | – |
| Cn1cccc1CCNc1ncc2c(-c3ccc(NS(=O)(=O)c4cccc(Cl)c4Cl)cc3)nn(C)c2n1 [Example 117, 2,3-Dichloro-N-(4-{1-methyl-6-[2-(1-methyl-1H-pyrrol-2-yl)ethylamino]-1H-pyrazolo[3,4-d]pyrimidin-3-yl]-phenyl}-benzenesulfonamide] | – | 1 to 10 µM | – |
| Cc1cc(-c2nn(C)c3nc(NCCN4CCOCC4)ncc23)ccc1NC(=O)Nc1ccc2ccccc2c1 [Example 46, 1-{2-Methyl-4-[1-methyl-6-(2-morpholin-4-yl-ethylamino)-1H -pyrazolo[3,4-d]pyrimidin-3-yl]-phenyl}-3-naphthalen-2-yl-urea] | 0.1 to 1 µM | – | IC50 [1]: > 10 µM |
| Cn1nc(-c2ccc(NC(=O)Nc3cc(C(F)(F)F)ccc3F)cc2)c2cnc(NC(CO)CO)nc21 [Example 83] | 0.1 to 1 µM | – | IC50 [1]: > 10 µM |
| Cn1nc(-c2ccc(NS(=O)(=O)c3cccc(Cl)c3Cl)cc2)c2cnc(NCCCCNC(=N)N)nc21 [Example 121, 2,3-Dichloro-N-{4-[1-methyl-6-(4-guanidino-butylamino)-1H-pyrazolo[3,4-d]pyrimidin-3-yl]-phenyl}-benzenesulfonamide] | 1 to 10 µM | > 10 µM | – |
| Cn1nc(-c2ccc(NC(=O)Nc3ccc4ccccc4c3)c(F)c2)c2cnc(NCCN3CCOCC3)nc21 [Example 55] | 0.1 to 1 µM | – | IC50 [1]: > 10 µM |
| CC(=O)NCCNc1ncc2c(-c3ccc(NS(=O)(=O)c4cccc(Cl)c4Cl)cc3)nn(C)c2n1 [Example 115, 2,3-Dichloro-N-{4-[1-methyl-6-(2-acetylamino-ethylamino)-1H-pyrazolo[3,4-d]pyrimidin-3-yl]-phenyl}-benzenesulfonamide] | > 10 µM | 1 to 10 µM | – |
| Cn1nc(-c2ccc(NS(=O)(=O)c3cccc(Cl)c3Cl)cc2)c2cnc(NCCCN)nc21 [Example 119, 2,3-Dichloro-N-{4-[1-methyl-6-(3-amino-propylamino)-1H-pyrazolo[3,4-d]pyrimidin-3-yl]-phenyl}-benzenesulfonamide] | 1 to 10 µM | > 10 µM | – |
| Cn1nc(-c2ccc(NC(=S)Nc3cccc(C(F)(F)F)c3)cc2)c2cnc(NCCN3CCOCC3)nc21 [Example 36, 1-{4-[1-Methyl-6-(2-morpholin-4-yl-ethylamino)-1H-pyrazolo[3,4-d]pyrimidin-3-yl]-phenyl}-3-(3-trifluoromethyl-phenyl)-thiourea] | 0.1 to 1 µM | – | – |
| Cn1nc(-c2ccc(NC(=O)Nc3cc(C(F)(F)F)ccc3F)cc2)c2cnc(NCCc3ccccn3)nc21 [Example 142] | 0.1 to 1 µM | – | – |
| CC(=O)c1cccc(NC(=O)Nc2ccc(-c3nn(C)c4nc(NCCN5CCOCC5)ncc34)cc2)c1 [Example 40, 1-(3-Acetyl-phenyl)-3-{4-[1-methyl-6-(2-morpholin-4-yl-ethylamino)-1H-pyrazolo[3,4-d]pyrimidin-3-yl]-phenyl}-urea] | 1 to 10 µM | – | – |
| CCc1cccc(NC(=O)Nc2ccc(-c3nn(C)c4nc(NCCN5CCOCC5)ncc34)cc2)c1 [Example 38, 1-(3-Ethyl-phenyl)-3-{4-[1-methyl-6-(2-morpholin-4-yl-ethylamino) -1H-pyrazolo[3,4-d]pyrimidin-3-yl]-phenyl}-urea] | 0.0398 to 0.1 µM | – | – |
| CN1CCN(CCCNc2ncc3c(-c4ccc(NS(=O)(=O)c5cccc(Cl)c5Cl)cc4)nn(C)c3n2)CC1 [Example 111, 2,3-Dichloro-N-(4-{1-methyl-6-[3-(4-methyl-piperazin-1-yl)-propylamino]-1H-pyrazolo[3,4-d]pyrimidin-3-yl]-phenyl}-benzenesulfonamide] | 1 to 10 µM | > 10 µM | – |
| CCc1cccc(NC(=O)Nc2ccc(-c3nn(C)c4nc(NCCN5CCOCC5)ncc34)cc2C)c1 [Example 45, 1-(3-Ethyl-phenyl)-3-{2-methyl-4-[1-methyl-6-(2-morpholin-4-yl-ethylamino)-1H-pyrazolo[3,4-d]pyrimidin-3-yl]-phenyl}-urea] | 0.1 to 1 µM | – | – |
| Cc1cc(-c2nn(C)c3nc(NCCN4CCOCC4)ncc23)ccc1NC(=O)Nc1ccc(Cl)c(C(F)(F)F)c1 [Example 44, 1-(Chloro-trifluoromethyl-phenyl)-3-{methyl-[methyl-(2-morpholin-4-yl-ethylamino)-1H-pyrazolo[3,4-d]pyrimidin-3-yl]-phenyl}-urea] | – | – | TIE2 PIC50 TIE2-E2 assay [2]: ++ (++ = PIC50 = 6.00 to less than 7.00) |
| Cc1cc(-c2nn(C)c3nc(NCCN4CCOCC4)ncc23)ccc1NC(=O)Nc1cc(C(F)(F)F)ccc1F [Example 43, 1-(2-Fluoro-5-trifluoromethyl-phenyl)-3-{methyl-[methyl-(2-morpholin-4-yl-ethylamino)-1H-pyrazolo[3,4-d]pyrimidin-3-yl]-phenyl}-urea] | – | – | TIE2 PIC50 TIE2-E2 assay [2]: +++ (+++ = PIC50 = 7.00 to less than 7.40) |
